Experimental data: patent US12220419B2, “BCL-2 inhibitors” (Newave Pharmaceutical Inc., priority 2018, dated 2025)
Where a name gives a salt, the structure may show the parent alone. Read-outs that look alike come from different tables or passages of the source.

Tests used:
BCL-2 = BCL-2 (Homo sapiens (Human), UniProt P10415); experiment: BCL-2 competition binding (fluorescence polarization) assay; conditions: read-out: BCL2 IC50
Procedure: Biological Example 1: BCL-2 Competition Binding (Fluorescence Polarization) Assay
The fluorescence-labeled 23 amino acid peptide BH3 was purchased from CalBiochem ([…]). […] This binding assay was performed in 96-well plate and with each assay contained 15 and 30 nM of labeled peptide and purified BCL-2 protein (purchased from R&D Systems, Inc). The assay buffer contained 20 mM Hepes (pH 7.0), 50 mM KCl, 5 mM MgCl2, 20 mM Na2MoO4, 0.1 mg/ml Bovine Gamma Globulin and 0.01% NP40. Compounds were diluted in DMSO and added to the final assay with concentration range from 20 μM to 2 nM. The polarization degree (mP) value was determined by BioTek Synergy II with background subtraction after 3 hours of incubation at room temperature. IC50 was calculated using Prism software with sigmoidal dose-response curve fitting. ABT-737 was used as reference compound. Such assays, carried out with a range of doses of test compounds, allowed the determination of an approximate IC50 value.

[1] = system: BCL-2-dependent acute lymphoblastic leukemia (ALL) cell line RS4;11; experiment: In vitro anti-proliferation assay (ATPlite luminescence) in RS4;11; format: cell-based; conditions: RS4;11 cells, about 72 hours, medium with 5% FBS or 10% normal human serum
Procedure: Cell antiproliferation was assayed by PerkinElmer ATPlite™ Luminescence Assay System. Briefly, the various test cancer cell lines were plated at a density of about 1×10^4 cells per well in Costar 96-well plates, and were incubated with different concentrations of compounds for about 72 hours in medium supplemented with 5% FBS or 10% normal human serum (NHS). One lyophilized substrate solution vial was then reconstituted by adding 5 mL of substrate buffer solution, and was agitated gently until the solution was homogeneous. About 50 μL of mammalian cell lysis solution was added to 100 μL of cell suspension per well of a microplate, and the plate was shaken for about five minutes in an orbital shaker at 700 rpm. This procedure was used to lyse the cells and to stabilize the ATP. Next, 50 μL substrate solution was added to the wells and microplate was shaken for five minutes in an orbital shaker at 700 rpm. Finally, the luminescence was measured by a PerkinElmer TopCount® Microplate Scintillation Counter. Such assays, carried out with a range of doses of test compounds, allowed the determination of the cellular anti-antiproliferative IC50 of the compounds of the present invention.

[2] = fluorescein-labeled BH3 peptide 15 nM, purified BCL-2 protein 30 nM, 3 hours incubation at room temperature

Sequence of BCL-2 (P10415 whole entry): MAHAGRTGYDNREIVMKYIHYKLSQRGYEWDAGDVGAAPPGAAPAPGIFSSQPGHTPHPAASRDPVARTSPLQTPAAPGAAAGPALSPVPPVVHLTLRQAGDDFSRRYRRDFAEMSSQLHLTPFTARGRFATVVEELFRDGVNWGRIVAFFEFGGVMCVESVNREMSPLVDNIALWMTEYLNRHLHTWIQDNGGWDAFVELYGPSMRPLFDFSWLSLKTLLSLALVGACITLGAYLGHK

| Compound | IC50 (BCL-2) [nM] | IC50 (BCL-2; [2]) [nM] | IC50 [1] [nM] |
| --- | --- | --- | --- |
| CNc1ccc2c(n1)OCCCN2c1cc(N2CCN(CC3=C(c4ccc(Cl)cc4)CC(C)(C)CC3)CC2)ccc1C(=O)NS(=O)(=O)c1ccc(NC[C@H]2COCCO2)c([N+](=O)[O-])c1 [Example 42, 4-(4-[[2-(4-chlorophenyl)-4,4-dimethylcyclohex-1-en-1-yl]methyl]piperazin-1-yl)-N-(4-[[(2S)-1,4-dioxan-2-ylmethyl]amino]-3-nitrobenzenesulfonyl)-2-[7-(methylamino)-2H,3H,4H-pyrido[2,3-b][1,4]oxazepin-1-yl]benzamide hydrochloride] |  | 4.1 | > 1000 |
| Cc1ncsc1-c1ccc(CNC(=O)[C@@H]2C[C@@H](C)CN2C(=O)[C@@H](NC(=O)CCOCCOCCOCCNc2ccc(S(=O)(=O)NC(=O)c3cc(N4CCN(CC5=C(c6ccc(Cl)cc6)CC(C)(C)CC5)CC4)ccc3N3CCCOc4nc5[nH]ccc5cc43)cc2[N+](=O)[O-])C(C)(C)C)cc1 [Example 59, (2S,4R)-1-[(2S)-2-[3-[2-(2-[2-[(4-[[5-(4-[[2-(4-chlorophenyl)-4,4-dimethylcyclohex-1-en-1-yl]methyl]piperazin-1-yl)-2-[14-oxa-2,4,10-triazatricyclo[7.5.0.0^[3,7]]tetradeca-1(9),2,5,7-tetraen-10-yl]phenyl]formamidosulfonyl]-2-nitrophenyl)amino]ethoxy]ethoxy)ethoxy]propanamido]-3,3-dimethylbutanoyl]-4-methyl-N-[[4-(4-methyl-1,3-thiazol-5-yl)phenyl]methyl]pyrrolidine-2-carboxamide] |  | 1.1 | 84 |
| Cn1c(=O)c2nc3[nH]ccc3cc2n1-c1cc(N2CCN(CC3=C(c4ccc(Cl)cc4)CC(C)(C)CC3)CC2)ccc1C(=O)NS(=O)(=O)c1ccc(NC[C@H]2COCCO2)c([N+](=O)[O-])c1 [Example 70, 4-(4-[[2-(4-chlorophenyl)-4,4-dimethylcyclohex-1-en-1-yl]methyl]piperazin-1-yl)-N-(4-[[(2S)-1,4-dioxan-2-ylmethyl]amino]-3-nitrobenzenesulfonyl)-2-[11-methyl-12-oxo-2,4,10,11-tetraazatricyclo[7.3.0.0^[3,7]]dodeca-1,3(7),5,8-tetraen-10-yl]benzamide] |  | 0.1 | 186 |
| O=C(NS(=O)(=O)c1ccc(NC[C@H]2COCCO2)c([N+](=O)[O-])c1)c1ccc(N2CCN(CC3=C(c4ccc(Cl)cc4)CCCC3)CC2)cc1N1CCCOc2nc3[nH]ccc3cc21 [Example 74, 4-(4-[[2-(4-chlorophenyl)cyclohex-1-en-1-yl]methyl]piperazin-1-yl)-N-(4-[[(2S)-1,4-dioxan-2-ylmethyl]amino]-3-nitrobenzenesulfonyl)-2-[14-oxa-2,4,10-triazatricyclo[7.5.0.0^[3,7]]tetradeca-1(9),2,5,7-tetraen-10-yl]benzamide] |  | 0.3 | 1.7 |
| CC1(C)CCC(CN2CCN(c3ccc(C(=O)NS(=O)(=O)c4ccc(NCCOCCOCCOCCNc5cccc6c5C(=O)N(C5CCC(=O)NC5=O)C6=O)c([N+](=O)[O-])c4)c(N4CCCOc5nc6[nH]ccc6cc54)c3)CC2)=C(c2ccc(Cl)cc2)C1 (stereo not drawn) [Example 53, 4-(4-[[2-(4-chlorophenyl)-4,4-dimethylcyclohex-1-en-1-yl]methyl]piperazin-1-yl)-N-[4-(12-[[2-(2,6-dioxopiperidin-3-yl)-1,3-dioxoisoindol-4-yl]amino]-4,7,10-trioxa-1-azadodecan-1-yl)-3-nitrobenzenesulfonyl]-2-[14-oxa-2,4,10-triazatricyclo[7.5.0.0^[3,7]]tetradeca-1(9),2,5,7-tetraen-10-yl]benzamide] |  | 1.2 | 79 |
| O=C(NS(=O)(=O)c1ccc(NC[C@H]2COCCO2)c([N+](=O)[O-])c1)c1ccc(N2CCN(CC3=C(c4ccc(Cl)cc4)CCCCC3)CC2)cc1N1CCCOc2nc3[nH]ccc3cc21 [Example 75, 4-(4-[[2-(4-chlorophenyl)cyclohept-1-en-1-yl]methyl]piperazin-1-yl)-N-(4-[[(2S)-1,4-dioxan-2-ylmethyl]amino]-3-nitrobenzenesulfonyl)-2-[14-oxa-2,4,10-triazatricyclo[7.5.0.0^[3,7]]tetradeca-1(9),2,5,7-tetraen-10-yl]benzamide] |  | 0.6 | 2.7 |
| COC1(C)CCC(c2ccc(Cl)cc2)=C(CN2CCN(c3ccc(C(=O)NS(=O)(=O)c4ccc(NC[C@H]5COCCO5)c([N+](=O)[O-])c4)c(N4CCCOc5nc6[nH]ccc6cc54)c3)CC2)C1 (stereo partly drawn) [Example 77, 4-(4-[[2-(4-chlorophenyl)-5-methoxy-5-methylcyclohex-1-en-1-yl]methyl]piperazin-1-yl)-N-(4-[[(2S)-1,4-dioxan-2-ylmethyl]amino]-3-nitrobenzenesulfonyl)-2-[14-oxa-2,4,10-triazatricyclo[7.5.0.0[3,7]]tetradeca-1(9),2,5,7-tetraen-10-yl]benzamide] |  | 0.08 | 0.8 |
| Cc1ncsc1-c1ccc(CNC(=O)[C@@H]2C[C@@H](O)CN2C(=O)[C@@H](NC(=O)CCOCCOCCOCCOCCOCCNc2ccc(S(=O)(=O)NC(=O)c3ccc(N4CCN(CC5=C(c6ccc(Cl)cc6)CC(C)(C)CC5)CC4)cc3N3CCCOc4nc5[nH]ccc5cc43)cc2[N+](=O)[O-])C(C)(C)C)cc1 [Example 55, (2S,4R)-1-[(2S)-2-[1-[(4-[[4-(4-[[2-(4-chlorophenyl)-4,4-dimethylcyclohex-1-en-1-yl]methyl]piperazin-1-yl)-2-[14-oxa-2,4,10-triazatricyclo[7.5.0.0^[3,7]]tetradeca-1(9),2,5,7-tetraen-10-yl]phenyl]formamidosulfonyl]-2-nitrophenyl)amino]-3,6,9,12,15-pentaoxaoctadecan-18-amido]-3,3-dimethylbutanoyl]-4-hydroxy-N-[[4-(4-methyl-1,3-thiazol-5-yl)phenyl]methyl]pyrrolidine-2-carboxamide] |  | 1.1 | 75 |
| CC1(C)CCC(CN2CCN(c3ccc(C(=O)NS(=O)(=O)c4ccc(NCC5CCOCC5)c([N+](=O)[O-])c4)c(N4CCCSc5nc6[nH]ccc6cc54)c3)CC2)=C(c2ccc(Cl)cc2)C1 [Example 27, 4-(4-((4′-chloro-5,5-dimethyl-3,4,5,6-tetrahydro-[1,1′-biphenyl]-2-yl)methyl)piperazin-1-yl)-2-(3,4-dihydro-2H-pyrrolo[3′,2′:5,6]pyrido[2,3-b][1,4]thiazepin-1(7H)-yl)-N-((3-nitro-4-(((tetrahydro-2H-pyran-4-yl)methyl)amino)phenyl)sulfonyl)benzamide] |  | 0.3 | 21 |

Now from value to molecule, other results behind:

| IC50 (BCL-2) [nM] | Compound | IC50 (BCL-2; [2]) [nM] | IC50 [1] [nM] |
| --- | --- | --- | --- |
| 0.6 | CC1(C)CCC(CN2CCN(c3ccc(C(=O)NS(=O)(=O)c4ccc(NCC5CCOCC5)c([N+](=O)[O-])c4)c(N4CCCCOc5nc6[nH]ccc6cc54)c3)CC2)=C(c2ccc(Cl)cc2)C1 [Example 69, 4-(4-[[2-(4-chlorophenyl)-4,4-dimethylcyclohex-1-en-1-yl]methyl]piperazin-1-yl)-N-(3-nitro-4-[[(oxan-4-yl)methyl]amino]benzenesulfonyl)-2-[15-oxa-2,4,10-triazatricyclo[7.6.0.0^[3,7]]pentadeca-1(9),2,5,7-tetraen-10-yl]benzamide] |  | 28.6 |
| 0.1 | CC1(C)CCC(CN2CCN(c3ccc(C(=O)NS(=O)(=O)c4ccc(NC[C@H]5COCCO5)c([N+](=O)[O-])c4)c(N4CCOCc5nc6[nH]ccc6cc54)c3)CC2)=C(c2ccc(Cl)cc2)C1 [Example 41, 4-(4-[[2-(4-chlorophenyl)-4,4-dimethylcyclohex-1-en-1-yl]methyl]piperazin-1-yl)-N-(4-[[(2S)-1,4-dioxan-2-ylmethyl]amino]-3-nitrobenzenesulfonyl)-2-[13-oxa-2,4,10-triazatricyclo[7.5.0.0^[3,7]]tetradeca-1(9),2,5,7-tetraen-10-yl]benzamide hydrochloride] |  | 1.1 |
| 0.01 | CC1(C)CC(c2ccc(Cl)cc2)=C(CN2CCN(c3ccc(C(=O)NS(=O)(=O)c4ccc(NC[C@H]5COCCO5)c([N+](=O)[O-])c4)c(N4CCCOc5nc6[nH]ccc6cc54)c3)CC2)CO1 [Example 72, 4-(4-[[4-(4-chlorophenyl)-6,6-dimethyl-2,5-dihydropyran-3-yl]methyl]piperazin-1-yl)-N-(4-[[(2S)-1,4-dioxan-2-ylmethyl]amino]-3-nitrobenzenesulfonyl)-2-[14-oxa-2,4,10-triazatricyclo[7.5.0.0^[3,7]]tetradeca-1(9),2,5,7-tetraen-10-yl]benzamide] |  | 0.3 |
